The subject of series [1] is SCID mice (C.B-17/lcrHsd-Prkcd). Put plainly: experimental colitis transfer model (CD45RBHigh cells injected into SCID mice). Format: in vivo, mouse. As to conditions: 50 mg/kg oral gavage twice a week. How it is done: To study the application of miltefosine as an anti-inflammatory drug, miltefosine was tested in the experimental colitis transfer model. In this model SCID mice, lacking T and B lymphocytes, are injected with only effector T lymphocytes (CD4^+CD45RB^High) omitting regulatory T lymphocytes (CD4^+CD45RB^Low). The absence of the letter causes, over a period of two months, the development of chronic inflammation of the colon.
Mouse CD4 positive lymphocytes were isolated from the spleen of normal mice (Balb/c OlaHsd). The spleen was removed, forced through a cell strainer to obtain a single cell suspension. Erythrocytes were lysed by adding water, quickly followed by PBS. The remaining cells were enriched in CD4 positive cells by negative depletion using magnetic beads specific for B cell (anti-B220), macrophages (anti-Mac-1) and cytotoxic T lymphocytes (anti-CD8). The remaining cell were washed and labeled for CD4 (CD4-PerCP-Cy5) and CD45RB (CD45RB-FITC). Using a FACS sorter the cell were separated in CD4 cells expressing low levels of CD45RB (CD45RB^Low) and high levels of CD45RB (CD45RB^High).
To induce colitis, SCID mice (C.B-17/lcrHsd-Prkcd) were injected with 5·10^5 CD45RB^High cells.
The mice were divided in three groups, each group containing 10 mice. […] Group two and three both received only CD45RB^High cells and developed colitis. Only group three received miltefosine (50 mg/kg) via oral gavage. Treatment started two weeks after the start of the experiment and was given twice a week until the end of the experiment. The mice were weighted three times a week during the entire duration of the experiment.
Part of the colon of each mouse was embedded in paraffin, cut and stained with hematoxylin and eosin (HE). The pathology score takes in account epithelial cell hyperplasia, leukocyte infiltrations, loss of goblet cells, ulceration and cryptabscesses.

The conditions of series [2]: 50 mg/kg per treatment; reported in literature; cited from earlier work.
The test system of another series is human patients. The conditions noted are these: high dosages; cited from earlier work.

Molecules are shown by their SMILES.

Regarding `CCCCCCCCCCCCCCCCOP(=O)([O-])OCC[N+](C)(C)C` [miltefosine, hexadecyl phosphocholine], in series [1] (after day 42), the “weight loss in two days time” value was “ten”. The “average weight at the end of the experiment” value in series [1] (between the groups) is “does not differ significantly”. Besides, in series [1] (till day 42), the “average weight of the group versus negative control group” value is “corresponded with the negative control group”. Besides, the effect on bodyweight entry in series [2] is “can affect bodyweight negatively”. The “side effects in human patients” value in the series with human patients was “nausea and vomiting”.

The values above are taken from patent US20160067269A1, “Miltefosin Or Perifosin For Use In The Treatment of IBD” (ACADEMISCH MEDISCH CENTRUM, priority 2013, published 2016).
